Data as given in US4565810A, “Derivatives of biliary acids, process for the production thereof and pharmaceutical compositions containing the same” (Lehner A.G., priority 1983, dated 1986).
Where two headings read alike, the source gives them in different places.

Legend:
physchem [1] = details: c18 hplc, methanol/water; for K' (retention factor): pH 5.7
Source text: (§1) The [α]D, pKa, the retention factor and the critical micellar concentrations (CMC), important because related to the capacity to form micelles in the bile and function of the hydrophilic/lipophilic balance, have been determined on the A, B, C, D isomers of 22,23-methanate-ursodeoxycholic acid. The CMCs have been measured by the method of the solubilization of insoluble dyes such as Azulene and Orange OT (Roda et al., J. Biol. Chem., in press).
**K' = Retention factor. It has been calculated from the retention times
on HPLC using as stationary phase a C18 column and as mobile phase a
mixture of methanol/H2 O 130/70; pH 5.7.

[2] = format: physicochemical
Source text: as §1

physchem [3] = assay: physchem
Source text: as §1
*Determined by potentiometric titration.

[4] = target: human serum albumina (HSP) (Homo sapiens, UniProt P02768); assay: Interaction with human serum albumin (albumin affinity constant)
bile lipid secretion = assay: Bile flow and bile lipid secretion in anaesthetized rats; format: in vivo, Sprague-Dawley rats; details: 50 mg i.v., bile collected for 5 h; for Bile flow: controls 0.55 ± 0.12, *** p < 0.01 vs. controls; for Cholesterol secretion: controls 1.66 ± 0.12, *** p < 0.01 vs. controls; for Phospholipid secretion: controls 6.92 ± 0.44, *** p < 0.01 vs. controls (CUDCA); for BA (bile acids) secretion: controls 61 ± 8
Source text: *The control values were obtained on five rats studied under similar
conditions to the BA treated rats. Each value represents the mean plus or
minus the SD of five determinations.

[5] = Hepatic uptake in isolated rat livers (method of Mortimore); format: in vitro ADME; details: isolated perfused liver, mean ± SD of five determinations

Chain of human serum albumina (HSP) (P02768 25-609): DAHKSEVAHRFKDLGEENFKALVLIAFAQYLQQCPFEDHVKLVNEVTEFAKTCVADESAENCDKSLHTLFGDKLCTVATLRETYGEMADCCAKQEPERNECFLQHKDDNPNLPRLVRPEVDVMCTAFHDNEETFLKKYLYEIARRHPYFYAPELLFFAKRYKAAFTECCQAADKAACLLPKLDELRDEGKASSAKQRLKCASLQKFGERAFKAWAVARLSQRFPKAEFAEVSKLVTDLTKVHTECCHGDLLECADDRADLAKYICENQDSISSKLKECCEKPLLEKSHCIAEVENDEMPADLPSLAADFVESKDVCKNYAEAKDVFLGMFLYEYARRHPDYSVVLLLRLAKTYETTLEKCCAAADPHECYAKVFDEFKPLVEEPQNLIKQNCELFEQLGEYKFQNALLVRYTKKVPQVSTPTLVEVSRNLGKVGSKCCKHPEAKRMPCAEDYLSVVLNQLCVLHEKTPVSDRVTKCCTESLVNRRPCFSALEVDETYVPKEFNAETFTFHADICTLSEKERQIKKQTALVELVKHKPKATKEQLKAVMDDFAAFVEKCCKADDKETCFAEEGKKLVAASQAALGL

SMILES | K' (retention factor) (physchem [1]) | CMC (H2O) [2] | CMC (Na^+ 0.15 M) [2] | pKa (physchem [3]; pKa) | pKa (physchem [3]) | Kd [4] | Bile flow (bile lipid secretion) | Cholesterol secretion (bile lipid secretion) | Phospholipid secretion (bile lipid secretion) | BA (bile acids) secretion (bile lipid secretion) | hepatic extraction ratio [5] | chromatographic logD (physchem [1]; pH 5.7, K' (retention factor))
C[C@H](C1CC1C(=O)O)[C@H]1CC[C@H]2[C@@H]3[C@@H](O)C[C@@H]4C[C@H](O)CC[C@]4(C)[C@H]3CC[C@]12C (single isomer, unassigned) [Isom. A, 22,23-methanate-ursodeoxycholic acid] | 0.21 | 25 mM | 16 mM | 5.03 |  |  |  |  |  |  |  | 
C[C@H](C1CC1C(=O)O)[C@H]1CC[C@H]2[C@@H]3[C@@H](O)C[C@@H]4C[C@H](O)CC[C@]4(C)[C@H]3CC[C@]12C (single isomer, unassigned) [Isom. B, 22,23-methanate-ursodeoxycholic acid] | 0.80 | 20 mM | 12 mM |  | 5.06 |  |  |  |  |  |  | 
C[C@H](C1CC1C(=O)O)[C@H]1CC[C@H]2[C@@H]3[C@@H](O)C[C@@H]4C[C@H](O)CC[C@]4(C)[C@H]3CC[C@]12C (single isomer, unassigned) [Isom. C, 22,23-methanate-ursodeoxycholic acid] | 1.30 | 14 mM | 8 mM |  | 5.02 |  |  |  |  |  |  | 
C[C@H](C1CC1C(=O)O)[C@H]1CC[C@H]2[C@@H]3[C@@H](O)C[C@@H]4C[C@H](O)CC[C@]4(C)[C@H]3CC[C@]12C (single isomer, unassigned) [Isom. D, 22,23-methanate-ursodeoxycholic acid] | 2.05 | 10 mM | 6 mM |  | 5.04 |  |  |  |  |  |  | 
C[C@H](C1CC1C(=O)O)[C@H]1CC[C@H]2[C@@H]3[C@@H](O)C[C@@H]4C[C@H](O)CC[C@]4(C)[C@H]3CC[C@]12C (stereo partly drawn) [CUDCA, 3α, 7β-dihydroxy-22,23-methylene-5β-cholan-24-oic acid] |  |  |  |  |  | 14.7 µM | 1.68 ± 0.20 mL/h | 2.70 ± 0.14 µmol/kg/h | 9.50 ± 0.44 ^.parallel.mol kg^-1 h^- | 97 ± 9 µmol/kg/h | 0.46 ± 0.01 | 
C[C@H](CCC(=O)O)[C@H]1CC[C@H]2[C@@H]3[C@@H](O)C[C@H]4C[C@H](O)CC[C@]4(C)[C@H]3CC[C@]12C [UDCA, 3α, 7β-dihydroxy-5α-cholan-24-oic acid, reference compound] |  | 19 mM | 11 mM | 5.06 |  |  | 1.08 ± 0.15 mL/h | 2.12 ± 0.09 µmol/kg/h | 6.47 ± 0.54 ^.parallel.mol kg^-1 h^- | 98 ± 7 µmol/kg/h |  | -0.0223
